Experimental data as given in publication PMC10046961, “High-Throughput Screening Assay for Detecting Drug-Induced Changes in Synchronized Neuronal Oscillations and Potential Seizure Risk Based on Ca^2+ Fluorescence Measurements in Human Induced Pluripotent Stem Cell (hiPSC)-Derived Neuronal 2D and 3D Cultures” (Cells, 2023).
Where two headings read alike, the source gives them in different places. Marks after values point to notes of the source that are not given here.

What was measured:
[1] = system: hiPSC-derived neurons co-cultured with human primary astrocytes in 2D; experiment: Ca2+ transient oscillation assay (FDSS), 2D co-culture; assay type: cell-based; conditions: for effect on peak number / Ca2+ neuronal oscillations, in words: 2D format; for activation at 3.7 µM / activation at 11.11 µM / activation at 33.33 µM / activation at 100 µM / activation at 0.11 µM / activation at 0.33 µM / activation at 1 µM / activation at 3 µM: Homo sapiens, 1 h, 60 min
Outline: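 Cultures were 10,000 CW50065 hiPSC excitatory neurons plus 2500 primary human astrocytes per well. Recordings used Cal-520 dye in HBSS/HEPES/glucose at 37 °C, with a 470/540 nm read at 2 Hz. Oscillations were stabilized with 0.04% DMSO, read for 20 min, then read again 60 min after compound addition (final DMSO 0.1%).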

[2] = system: hiPSC-derived neurons co-cultured with human primary astrocytes in 3D; experiment: Ca2+ transient oscillation assay (FDSS), 3D spheroids; assay type: cell-based; conditions: 60 min
Outline: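 Fura-2 fluorescence was read twice for 20 min each: a baseline 10 min after 0.04% DMSO, and again 60 min after compound addition at nominal final concentration. The 3D co-cultures (1:1 hiPSC neurons from a donor and human astrocytes, 8000 each) matured 5 weeks in BrainPhys medium after a 1-week differentiation.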

[3] = ref PharmaPendium, cited from earlier work
[4] = read-out: Area under the curve - 2D Mean
[5] = read-out: Peak amplitude - 2D Mean
[6] = read-out: Peak-to-peak interval - 2D Mean
[7] = Table 1, peak plasma concentration in men, free therapeutic Cmax
[8] = Table 2, highest plasma concentration in humans after the therapeutic dose

## NCCc1c[nH]c2ccc(O)cc12 [Serotonin]
[1]
  effect on peak number / Ca2+ neuronal oscillations, in words: significantly reduced peak number
[1]; [4]
  activation at 3.7 µM: 12.8%
  activation at 11.11 µM: 11.1%
  activation at 33.33 µM: -8.9%
  activation at 100 µM: -2.6%
[1]; read-out: Peak Number—2D Mean
  activation at 3.7 µM: -23.4%
  activation at 11.11 µM: -1.7%
  activation at 33.33 µM: -43.8%
  activation at 100 µM: -45.8%
[1]; [5]
  activation at 3.7 µM: -4.9%
  activation at 11.11 µM: -13.7%
  activation at 33.33 µM: -27.1%
  activation at 100 µM: -16.6%
[1]; read-out: Peak width - 2D Mean
  activation at 3.7 µM: 17.3%
  activation at 11.11 µM: 18.3%
  activation at 33.33 µM: -1.4%
  activation at 100 µM: 11.4%
[1]; [6]
  activation at 3.7 µM: 28.4%
  activation at 11.11 µM: 65.8%
  activation at 33.33 µM: 36.4%
  activation at 100 µM: 55.3%
[2]; 3.7 µM
  Area under the curve - 3D Mean: −19.4 % change from baseline
  Peak Number—3D Mean: −70.7 ** % change from baseline
  Peak amplitude - 3D Mean: −4.3 % change from baseline
  Peak width - 3D Mean: −54.0 % change from baseline
  Peak-to-peak interval - 3D Mean: −58.0 % change from baseline
[2]; 11.11 µM
  Area under the curve - 3D Mean: 19.8 % change from baseline
  Peak Number—3D Mean: −69.1 ** % change from baseline
  Peak amplitude - 3D Mean: 33.7 % change from baseline
  Peak width - 3D Mean: −31.8 % change from baseline
  Peak-to-peak interval - 3D Mean: −37.9 % change from baseline
[2]; 33.33 µM
  Area under the curve - 3D Mean: −21.3 % change from baseline
  Peak Number—3D Mean: −82.1 ** % change from baseline
  Peak amplitude - 3D Mean: −3.1 % change from baseline
  Peak width - 3D Mean: −52.3 % change from baseline
  Peak-to-peak interval - 3D Mean: 29.2 % change from baseline
[2]; 100 µM
  Area under the curve - 3D Mean: −21.1 % change from baseline
  Peak Number—3D Mean: −80.3 ** % change from baseline
  Peak amplitude - 3D Mean: −10.3 % change from baseline
  Peak width - 3D Mean: −55.4 % change from baseline
  Peak-to-peak interval - 3D Mean: −82.0 % change from baseline
[3]; [7]
  Free Cmax: 1000 to 2000 nM
[3]; [8]
  Free Cmax: 1000 to 2000 nM

## NCCCC(=O)O [GABA, gamma-aminobutyric acid]
[1]
  effect on peak number / Ca2+ neuronal oscillations, in words: significantly reduced peak number
[1]; [4]
  activation at 0.11 µM: 23.1%
  activation at 0.33 µM: 21.1%
  activation at 1 µM: 16.4%
  activation at 3 µM: 14.9%
[1]; read-out: Peak Number—2D Mean
  activation at 0.11 µM: -1.6%
  activation at 0.33 µM: -4.4%
  activation at 1 µM: -12.4%
  activation at 3 µM: -36.5%
[1]; [5]
  activation at 0.11 µM: 9.1%
  activation at 0.33 µM: 5.7%
  activation at 1 µM: -1.4%
  activation at 3 µM: -2.7%
[1]; read-out: Peak width - 2D Mean
  activation at 0.11 µM: 13.2%
  activation at 0.33 µM: 15.4%
  activation at 1 µM: 11.7%
  activation at 3 µM: 8.5%
[1]; [6]
  activation at 0.11 µM: -12.3%
  activation at 0.33 µM: 29.1%
  activation at 1 µM: 32%
  activation at 3 µM: -26.3%
[2]; 0.11 µM
  Area under the curve - 3D Mean: 111.5 % change from baseline
  Peak Number—3D Mean: 5.0 % change from baseline
  Peak amplitude - 3D Mean: 87.8 % change from baseline
  Peak width - 3D Mean: 7.6 % change from baseline
  Peak-to-peak interval - 3D Mean: 0.2 % change from baseline
[2]; 0.33 µM
  Area under the curve - 3D Mean: 116.2 % change from baseline
  Peak Number—3D Mean: −1.8 % change from baseline
  Peak amplitude - 3D Mean: 112.0 % change from baseline
  Peak width - 3D Mean: 0.5 % change from baseline
  Peak-to-peak interval - 3D Mean: −2.1 % change from baseline
[2]; 1 µM
  Area under the curve - 3D Mean: 97.0 % change from baseline
  Peak Number—3D Mean: −0.6 % change from baseline
  Peak amplitude - 3D Mean: 90.5 % change from baseline
  Peak width - 3D Mean: −2.7 % change from baseline
  Peak-to-peak interval - 3D Mean: 8.3 % change from baseline
[2]; 3 µM
  Area under the curve - 3D Mean: 118.7 % change from baseline
  Peak Number—3D Mean: 2.2 % change from baseline
  Peak amplitude - 3D Mean: 110.9 % change from baseline
  Peak width - 3D Mean: 0.7 % change from baseline
  Peak-to-peak interval - 3D Mean: −2.5 % change from baseline
[3]; [7]
  Free Cmax: ~1000 nM
[3]; [8]
  Free Cmax: ~1000 nM
